Data reported in PubChem BioAssay (NCI).
Values joined by “and” are separate entries in the source; they are usually repeats but may differ in a detail not shown here. Equal values may be shown once.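 1) Cells in 96-well plates. 2) Compound, 48 h, 5 concentrations. 3) Linear interpolation between surrounding doses. 4) Unreached endpoint = highest concentration. GI50 = concentration required for 50% inhibition of growth. TGI denotes the concentration required for complete inhibition of growth.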

Assays:
Assay in all cases: NCI-60 cell line screen, 48 h
K-562 leukemia = system: K-562 leukemia
BT-549 breast = system: BT-549 breast
CCRF-CEM leukemia = system: CCRF-CEM leukemia
A549 NSCLC = system: A549 NSCLC
HOP-92 NSCLC = system: HOP-92 NSCLC
NCI-H23 lung = system: NCI-H23 lung
OVCAR-4 ovarian = system: OVCAR-4 ovarian
LOX IMVI melanoma = system: LOX IMVI melanoma
SF-539 CNS = system: SF-539 CNS
T-47D breast = system: T-47D breast

| Compound | GI50 (K-562 leukemia) [µM] | TGI (K-562 leukemia) [µM] | GI50 (BT-549 breast) [µM] | TGI (BT-549 breast) [µM] | GI50 (CCRF-CEM leukemia) [µM] | TGI (CCRF-CEM leukemia) [µM] | GI50 (A549 NSCLC) [µM] | TGI (A549 NSCLC) [µM] | GI50 (HOP-92 NSCLC) [µM] | TGI (HOP-92 NSCLC) [µM] | GI50 (NCI-H23 lung) [µM] | TGI (NCI-H23 lung) | GI50 (OVCAR-4 ovarian) [µM] | TGI (OVCAR-4 ovarian) [µM] | GI50 (LOX IMVI melanoma) [µM] | TGI (LOX IMVI melanoma) | GI50 (SF-539 CNS) [µM] | TGI (SF-539 CNS) | GI50 (T-47D breast) [µM] | TGI (T-47D breast) [µM] |
| --- | --- | --- | --- | --- | --- | --- | --- | --- | --- | --- | --- | --- | --- | --- | --- | --- | --- | --- | --- | --- |
| Nc1nccc(-c2c(-c3ccc(F)cc3)ncn2CCCN2CCOCC2)n1 | > 25 | > 25 | > 25 | > 25 | > 25 | > 25 | > 25 | > 25 | > 21.7 | > 25 | > 25 | > 25 µM | > 25 | > 25 | > 25 | > 25 µM | > 25 | > 25 µM | > 25 | > 25 |
| O=C(O)C(Sc1ccc(Cl)cc1)Sc1ccc(Cl)cc1 |  | > 100 |  | > 100 |  | > 100 |  | > 100 |  | 68.2 |  | > 100 µM |  | > 100 |  | > 100 µM |  | > 100 µM |  | > 100 |
| COc1ccc(C2CC(=O)c3c(OC)cc(OC)cc3O2)cc1 (stereo not given) | > 100 | > 100 | > 100 | > 100 | 4.2 | > 100 | > 100 | > 100 | 18.4 | > 100 | > 100 | > 100 µM | > 100 | > 100 | > 100 | > 100 µM | > 100 | > 100 µM | > 100 | > 100 |
| COc1cc2c3c(n(CCCBr)c(=O)c2cc1OC)-c1ccc(NC(C)=O)cc1C3=O | 3.84 | 28.3 | 8 | 34.7 | 1.44 | 19.1 | 25.4 | > 100 | 73.4 | > 100 | 11.8 | 46.4 µM | 32.3 | > 100 | 2.1 | 15 µM | 3.78 | 16.2 µM | 1.84 | > 100 |
| CC(C)CC(N)C(=O)O (stereo not given) |  | > 100 |  | > 100 |  | > 100 |  | > 100 |  | > 100 |  | > 100 µM |  | > 100 |  | > 100 µM |  | > 100 µM |  | > 100 |
| COC(=O)[C@]12CCC(C)(C)C[C@H]1C1=CC[C@@H]3[C@@]4(C)C/C(=C/c5cccnc5)C(=O)C(C)(C)[C@@H]4CC[C@@]3(C)[C@]1(C)CC2 | 3.2 | > 100 | 2.56 | 7.93 | 2.81 | 13.7 | 11.9 | > 100 | 1.87 | 8.41 | 8.05 | 29.8 µM | 11.3 | > 100 | 4.63 | 17.8 µM | 7.43 | 20.7 µM | 2.96 | 28 |
| CC(C)(C)C1=CC(=CC=C2C=CN(CCCCCCCCCCCO)C=C2)C=C(C(C)(C)C)C1=O |  | 4.87 |  | 4.44 |  | 11.7 |  | 3.58 |  | 6.16 |  | 10.6 µM |  | 3.57 |  | 1.69 µM |  | 3.12 µM |  | 2.7 |
| Cn1cc(-c2csc(-c3cccc(F)c3)n2)c2cccnc21 | 23.3 | 87.1 | 20.9 | 56.1 | 35.9 | > 100 | 20.9 | 47.4 | 1.04 | 18.6 | 17.3 | 36 µM | 27.6 | 78.6 | 14.1 | 27.5 µM | 15.5 | 30.1 µM | 14.4 | 51.7 |
| Cc1cc(C)cc(Nc2cc(C)nc3nc(C(F)(F)F)nn23)c1 |  |  | 39.6 | > 100 |  |  |  |  | 26.2 | 97.9 | > 100 | > 100 µM | > 100 | > 100 | > 100 | > 100 µM | 38.9 | > 100 µM | > 100 | > 100 |
| N#C/C(C(=S)Nc1ccccc1)=C1/NN=C2c3ccccc3C(=O)NN21 | 22.1 | > 100 | 24.3 | 80 |  |  | 34 | > 100 | 29.2 | 88.7 |  |  | 26.2 | 91.2 | 19.9 | 52.8 µM | 18.7 | 40.9 µM | 36.7 | > 100 |
| Cc1cc(C2CCCCC2)n(O)c(=O)c1 |  | > 100 | 6.19 | > 100 |  | 74.5 | 1.34 | > 100 |  | 21.5 | 3.03 | > 100 µM and 64.8 µM | 0.75 | > 100 | 0.757 | 80.3 µM and 80.1 µM | 2.04 | 80.9 µM and 93.8 µM | 2.63 | > 100 |
| Cc1[nH]c(N=Nc2ccccc2)nc1N=Nc1ccccc1 | 3.55 | > 100 | 2.08 | 8.11 | 2.19 | > 25.3 | 2.86 | 12 | 2.34 | 20.3 | 3.28 | > 36.3 µM | 3.06 | 55.4 | 2.72 | 20.9 µM | 2.6 | 6.93 µM | 2.77 | > 46.8 |
| CCC1(O)C(=O)OCc2c1cc1n(c2=O)Cc2cc3c(N)cccc3nc2-1 (stereo not given) |  | > 48.2 |  | 4.95 |  | 0.0858 |  | 10.8 |  | 0.931 |  | 0.0806 µM |  | 11.6 |  | 0.23 µM |  | 0.0409 µM | 0.0191 | 0.654 |
| CCCCCCCCCCC(O)C1CCC(C2CCC(C(O)CCCCC(O)CCCCCC(O)CC3=CC(C)OC3=O)O2)O1 (stereo not given) | 1.81 | > 25 |  | > 25 | 1.58 | > 25 | 1.93 | > 25 | 3.87 | > 25 | 0.0144 | > 25 µM |  | > 25 | 0.218 | 2.6 µM and > 25 µM |  | > 25 µM | 7.17 | > 25 |
| COc1cccc(N=Cc2c3ccccc3c(=O)n3c2oc2ccccc23)c1 | 2.09 | 6.05 | 21.9 | > 100 | 4.58 | 73.2 | 4.84 | 23.7 | 1.68 | 30.7 | 13.3 | 59 µM | > 100 | > 100 | 5.13 | 30.3 µM | 16.3 | 95.3 µM | > 100 | > 100 |
